Assay results as given in patent US10188617B2, “Modulation of cellular DNA repair activity to intercept malignancy” (THE BOARD OF TRUSTEES OF THE LELAND STANFORD JUNIOR …, priority 2013, dated 2019).
pEC50: −log10 of the molar value. Structures can show the parent of a compound that is named as a salt. Values belong to the compound of their own block, whether it stands above or below them.

Tests used:
[1] = test system: BER of ODD in SUM149PT cells; assay: High-throughput chemical screen with cell-based DNA repair assay (oxidatively damaged GFP reporter, host-cell reactivation); conditions: for pEC50: read-out: EC50 (image analysis), dose-response increase in GFP expression by imaging, 20 μM to 0.3 μM two-fold dilutions; for Priority score (summed priority score): sum of assigned priority scores, range 1-10, 10 = highest priority; for identified as hit in the screen (enhanced BER of ODD): LOPAC1280 library, summed priority score above 1; for % BER (High) (image analysis): % BER activity relative to negative control at high concentration;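 as to all read-outs here: SUM149PT cells pretreated 24 h with compound, then given photodynamically oxidized adenoviral GFP reporter, 24 h host-cell reactivation, GFP read as repair, undamaged reporter positive and damaged reporter negative control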
[2] = test system: BER of ODD in MCF7 cells (wild-type BRCA1, BER-proficient); assay: DNA repair assay (oxidatively damaged GFP reporter gene), follow-up; format: cell-based, human; conditions: for repair compared to vehicle control (SAR mini-analysis): BER-proficient MCF7 cells
Procedure: (§1) Human breast cancer cell lines that were deficient in BER (HCC1143, MDAMB468, HCC1937, and SUM149) or proficient in BER (BT474 and MCF7) were cultured according to American Type Culture Collection guidelines, with the exception of SUM149, which was cultured according to Asterand plc guidelines. Brca1^+/+ and Brca1^-/- mouse mammary epithelial […] previously described. Cells were treated with DMSO (vehicle control) or acetohexamide or benserazide as indicated for 24 hours at 37° C. and 5% CO2. The DNA repair assay was carried out as described in the examples below. Where indicated, BER (base excision mode of DNA repair) activity was expressed relative to the control (DMSO).

[3] = test system: BER of ODD in SUM149 cells (mutant BRCA1, BER-defective); assay: as above; format: cell-based, human; conditions: for relative BER activity: relative to the control (DMSO); for repair activity compared to the vehicle control: SUM149
Procedure: as §1

[4] = test system: MCF7 cells transduced with non-targeting control; assay: Soft agar colony formation assay; format: cell-based, human
From the text: (§2) […] Colony formation represents tumorigenic potential. Tamoxifen is the current FDA-approved chemoprevention agent for breast cancer and a therapeutically-equivalent dose was used for comparison.
(§3) Benserazide and carbidopa were also both included among the compounds screened for BER-enhancing activity (FIG. 3A-3B). […] Therefore, we first validated our screening data by subjecting the mutant BRCA1-containing SUM149 cell line to the BER assay following pre-treatment with vehicle control or carbidopa.

[5] = test system: MCF7 cells transduced with shRNA to BRCA1; assay: Soft agar colony formation assay; format: cell-based, human
From the text: as §2, §3

[6] = test system: BER of ODD in BT474 cells (wild-type BRCA1); assay: DNA repair assay (oxidatively damaged GFP reporter gene), follow-up; format: cell-based, human; conditions: 20 μM, BT474, vs vehicle
Procedure: as §1

[7] = test system: BER of ODD in HCC1937 cells (mutant BRCA1); assay: as above; format: cell-based, human; conditions: 20 μM, HCC1937, vs vehicle
Procedure: as §1

[8] = test system: SUM149PT cells; assay: Hoechst live-cell staining (cell number); format: cell-based, human; conditions: concentrations up to 40 μM
Procedure: (§4) Cells were treated with acetohexamide for 48 hours in quadruplicate and then incubated with 2 μg/ml Hoechst 33358 live-cell dye for 20 minutes. Four representative fields for each replicate were imaged by the ImageXpress 5000A high-content imager (Molecular Devices). Nuclei were counted using MetaMorph® software (Molecular Devices) and expressed as a percentage relative to the vehicle control (DMSO).

[9] = test system: other BER-defective breast cancer cell lines; assay: Hoechst live-cell staining (cell number); format: cell-based, human; conditions: 20 μM
Procedure: as §4

[10] = test system: H2O2-induced ODD in breast cancer cell lines with defective BER; assay: Alkaline comet assay modified for detection of oxidative lesions (FPG); format: cell-based, human; conditions: pretreatment, compared to undamaged control
Procedure: (§5) Cells were collected and embedded into CometAssay® LM Agarose (Trevigen) and placed on CometAssay® HT Slides (Trevigen) in duplicate. Cells were lysed at 4° C. in Lysis Buffer (Trevigen) for >24 hours. Slides were treated with or without FPG enzyme at 37° C. and 5% CO2 for 45 minutes to nick DNA at sites of ODD and then subjected to alkaline treatment at 4° C. for 40 minutes to denature DNA. Slides underwent electrophoresis under alkaline conditions to separate intact from damaged DNA. Following neutralization, DNA was stained using SYBR® green I and visualized as a comet in shape by fluorescent microscopy under 20× objective. […] CometScore software was used to quantify % DNA in Tail. Strand breaks were determined by % DNA in Tail in FPG-minus samples. ODD was determined by subtracting % DNA in Tail in FPG-minus samples from % DNA in Tail in FPG-plus samples.

[11] = test system: BER-defective and BER-proficient cells; assay: Alkaline comet assay, strand breaks; format: cell-based; conditions: compared to the vehicle control; H2O2 positive control
Procedure: as §5

[12] = test system: SUM149PT and other cell lines; assay: MTT assay (cell viability); format: cell-based, human; conditions: concentrations up to 1 mM, 72 hours
[13] = test system: 8oxoG lesions in breast cancer cell lines with defective BER; assay: 8oxoG lesions (OxyFlow Kit); format: cell-based, human; conditions: time-dependent
Procedure: Cells were analyzed using the OxyFlow™ Kit (Hemogenix) according to the manufacturer's instructions.

SMILES: COC(=O)C(N)Cc1ccc(Cl)cc1.Cl (racemic) [DL-p-Chlorophenylalanine methyl ester hydrochloride]
pEC50 [1]: 4.59
Priority score (summed priority score) [1]: 7

SMILES: Cc1ccc(S(=O)(=O)NC(=O)NC2CCCCC2)cc1 [BA-4]
repair compared to vehicle control (SAR mini-analysis) [2]: none of the four analogs significantly increased repair
BER compared to the vehicle control (SAR mini-analysis) ([3]; SUM149PT cells): significantly increased BER

SMILES: Cc1cnc(C(=O)NCCc2ccc(S(=O)(=O)NC(=O)NC3CCCCC3)cc2)cn1 [Glipizide, N-(4-[N-(cyclohexylcarbamoyl)sulfamoyl]phenethyl)-5-methylpyrazine-2-carboxamide]
repair compared to vehicle control (SAR mini-analysis) [2]: none of the four analogs significantly increased repair
BER compared to the vehicle control (SAR mini-analysis) ([3]; SUM149PT cells): significantly increased BER
relative BER activity [3]: 1.22±0.12
identified as hit in the screen (enhanced BER of ODD) [1]: identified as a hit
Priority score (summed priority score) [1]: 2

SMILES: CC(C)COCC(CN(Cc1ccccc1)c1ccccc1)N1CCCC1 (stereo not drawn) [Bepridil hydrochloride]
pEC50 [1]: 4.64
Priority score (summed priority score) [1]: 10

SMILES: CC(C)CCNC(=O)NS(=O)(=O)c1ccccc1 [BA-9]
repair compared to vehicle control (SAR mini-analysis) [2]: none of the four analogs significantly increased repair
BER compared to the vehicle control (SAR mini-analysis) ([3]; SUM149PT cells): significantly increased BER

SMILES: CC[N+](C)(C)Cc1ccccc1Br [Bretylium tosylate]
pEC50 [1]: 4.57
Priority score (summed priority score) [1]: 7

SMILES: Cl.NCCc1ccc(S(=O)(=O)F)cc1 [4-(2-Aminoethyl)benzenesulfonyl fluoride hydrochloride]
% BER (High) (image analysis) ([1]; imaging): 25.1%
pEC50 [1]: 4.01
Priority score (summed priority score) [1]: 7

SMILES: CNc1ccc2oc(C[C@H]3O[C@@]4(CC[C@H]3C)O[C@H]([C@H](C)C(=O)c3ccc[nH]3)[C@H](C)C[C@H]4C)nc2c1C(=O)O [Calcimycin]
pEC50 [1]: 5.29
Priority score (summed priority score) [1]: 7

SMILES: CCCCNC(=O)NS(=O)(=O)c1ccccc1 [BA-5]
repair compared to vehicle control (SAR mini-analysis) [2]: none of the four analogs significantly increased repair
BER compared to the vehicle control (SAR mini-analysis) ([3]; SUM149PT cells): increased BER in these cells but without statistical significance

SMILES: C[C@H](CS)C(=O)N1CCC[C@H]1C(=O)O [Captopril]
pEC50 [1]: 4.73
Priority score (summed priority score) [1]: 7

SMILES: CN(C)CCC(c1ccc(Br)cc1)c1ccccn1.O=C(O)/C=C\C(=O)O (single isomer, unassigned; (+)) [(+)-Brompheniramine maleate]
% BER (High) (image analysis) ([1]; imaging): 29.4%
pEC50 [1]: 4.56
Priority score (summed priority score) [1]: 7

SMILES: CC(=O)O[C@]1(C(C)=O)CC[C@H]2[C@@H]3C=C(Cl)C4=CC(=O)[C@@H]5C[C@@H]5[C@]4(C)[C@H]3CC[C@@]21C [Cyproterone acetate]
pEC50 [1]: 4.56
Priority score (summed priority score) [1]: 7

SMILES: N=c1ccn2c(n1)O[C@H]1[C@H](O)[C@@H](CO)O[C@H]12 [Ancitabine hydrochloride]
pEC50 [1]: 4.70
Priority score (summed priority score) [1]: 10

SMILES: O=c1[nH]c(=O)n([C@H]2C[C@H](O)[C@@H](CO)O2)cc1Br [5-Bromo-2′-deoxyuridine]
GFP signal in image montage ([1]; preliminary screen, highest concentration tested 18 uM): visible signal similar to that of SUM149PTcells infected with undamaged adGFP
percentage of GFP-positive cells (normalized to Hoechst 33342-positive cells) ([1]; preliminary screen, imaging): dose-response increase in the percentage of GFP-positive cells
GFP intensity (normalized to Hoechst 33342-intensity) ([1]; preliminary screen, plate reading): dose-response increase in GFP intensity
pEC50 [1]: 5.14
Priority score (summed priority score) [1]: 10

SMILES: Cl.NC(CO)C(=O)NNCc1ccc(O)c(O)c1O (racemic) [Benserazide hydrochloride, DL-Serine 2-(2,3,4-trihydroxybenzyl)hydrazide hydrochloride]
pEC50 [1]: 4.66
Priority score (summed priority score) [1]: 7

SMILES: O=C1c2c(O)ccc(O)c2C(=O)c2c(NCCNCCO)ccc(NCCNCCO)c21 [Mitoxantrone]
pEC50 [1]: 4.88
Priority score (summed priority score) [1]: 7

SMILES: Cl.Nc1ccn([C@@H]2O[C@H](CO)[C@@H](O)[C@@H]2O)c(=O)n1 [Cytosine-1-beta-D-arabinofuranoside hydrochloride]
% BER (High) (image analysis) ([1]; imaging): 18.3%
pEC50 [1]: 4.64
Priority score (summed priority score) [1]: 10

SMILES: C[C@@](Cc1ccc(O)c(O)c1)(NN)C(=O)O [carbidopa, Carbidopa]
repair activity compared to the vehicle control ([3]; 10 μM): no effect on repair activity
repair activity compared to the vehicle control ([3]; 20 μM): no effect on repair activity
identified as hit in the screen (enhanced BER of ODD) [1]: did not identify carbidopa as a hit
colony formation compared to vehicle control ([4]; 10 μM): no significant effect on colony formation
colony formation compared to vehicle control ([4]; 20 μM): no significant effect on colony formation
colony formation compared to vehicle control ([5]; 10 μM): no significant effect on colony formation
colony formation compared to vehicle control ([5]; 20 μM): no significant effect on colony formation

SMILES: CN(C)CCOC(=O)COc1ccc(Cl)cc1 [Centrophenoxine hydrochloride]
pEC50 [1]: 4.69
Priority score (summed priority score) [1]: 7

cell number (Hoechst 33342 staining) [9]: nor did it affect the cell number
SMILES: CC(=O)c1ccc(S(=O)(=O)NC(=O)NC2CCCCC2)cc1 [Acetohexamide]
BER ([2]; 20 μM, MCF7, vs vehicle): no effect on BER
BER ([3]; 20 μM, SUM149, vs vehicle): statistically significant increase in BER
repair of oxidatively damaged GFP reporter gene, dose-response ([3]; SUM149PT cells, 24 hours treatment): dose-response increase in repair of an oxidatively damaged GFP reporter gene
relative BER activity [3]: 1.68±0.13
BER [6]: no effect on BER
BER [7]: statistically significant increase in BER
number of cells (Hoechst 33342 staining) [8]: did not affect the number of SUM149PT cells
H2O2-induced ODD [10]: decreased H2O2-induced ODD to levels similar to those of the undamaged control
pEC50 [1]: 4.37
Hoechst-positive cells ([1]; screening data by imaging, compared to negative control): 87.8%
Priority score (summed priority score) [1]: 7
DNA strand breaks [11]: did not significantly induce DNA strand breaks
cell viability (MTT) [12]: did not affect the cell viability
basal levels of 8oxoG lesions [13]: decreased basal levels of 8oxoG lesions

SMILES: Clc1ccccc1C(c1ccccc1)(c1ccccc1)n1ccnc1 [Clotrimazole]
Priority score (summed priority score) [1]: 7

SMILES: C[C@@]12C(=O)OC(=O)[C@]1(C)[C@H]1CC[C@@H]2O1 [Cantharidin]
Priority score (summed priority score) [1]: 10
